In PMC4848495, “Identification of a Potent and Broad-Spectrum Hepatitis C Virus Fusion Inhibitory Peptide from the E2 Stem Domain” (Scientific Reports, 2016):
Residues, ends and D or L forms follow the SMILES beside them.

Key:
[1] = system: HCVpp packaged with E1E2 from genotypes 1–6; assay: HCVpp entry assay; type: cell-based, Hepatitis C virus; details: HCVpp system and HCVcc system (Fig. 8A,B)
[2] = system: VSV-G-pseudotyped lentivirus; type: cell-based
E1E2 heterodimer = E1E2 heterodimer analysis by native-PAGE / Western blotting; type: cell-based, Hepatitis C virus; details: E27 expressed from plasmid co-transfected with E1E2 in Huh7.5.1 cells, 24 h
Description: (§1) Figure 5 Effect of E27 on E1E2 heterodimerization. (a) Analysis of the E1E2 heterodimer by native-PAGE. A plasmid expressing the E27 peptide or a scramble control peptide was co-transfected into Huh7.5.1 cells with a plasmid encoding E1E2. The single E1 or E2 plasmid was used as the control. At 24 h post-transfection, cells were lysed for Western blotting using antibodies recognizing E1 or E2. (b,c) Interaction between the E27 and E1/E2 glycoproteins was determined by co-immunoprecipitation. A plasmid expressing Myc-tagged E27 was co-expressed with either Flag-tagged E1 (b) or Flag-tagged E2 (c). Cell lysates were immunoprecipitated with an anti-Flag antibody and detected with an anti-Myc antibody or an anti-E1- or E2 antibody. The empty Flag vector was used as a negative control.
(§2) For cell lysate preparation, monolayer cells were lysed on ice with lysis buffer supplemented with protease inhibitor cocktail (Sigma or Pierce). After electrophoresis, the separated proteins were transferred onto a nitrocellulose membrane (Bio-Rad, Hercules, CA), blocked with 10% milk for 1 h, and incubated with the primary antibody overnight at 4 °C. The secondary antibody used was a 1:2000 dilution of HRP-linked anti-IgG. The ECL reagent (Amersham Biosciences, Piscataway, NJ) was used as the substrate for detection. […]

Huh7.5.1 cells = assay: Cytotoxicity assay (MTT); type: cell-based, human
Description: Huh7.5.1 cells were treated with E27 for the indicated concentration and period of time. After removal of E27, cells were incubated for an additional 48 h in 24-well plates. Cytotoxicity was determined using the MTT Cell Viability Assay Kit from R&D Systems (Minneapolis, MN, USA).

[3] = target: HCV glycoprotein E1E2-mediated membrane fusion (Hepatitis C virus genotype 1a, UniProt P27958); assay: cell-based; type: cell-based, Hepatitis C virus (strain H77); details: cell-cell fusion assay (Supplementary Fig. S3)
Sequence of HCV glycoprotein E1E2-mediated membrane fusion (Hepatitis C virus genotype 1a, UniProt P27958) (P27958 384-746): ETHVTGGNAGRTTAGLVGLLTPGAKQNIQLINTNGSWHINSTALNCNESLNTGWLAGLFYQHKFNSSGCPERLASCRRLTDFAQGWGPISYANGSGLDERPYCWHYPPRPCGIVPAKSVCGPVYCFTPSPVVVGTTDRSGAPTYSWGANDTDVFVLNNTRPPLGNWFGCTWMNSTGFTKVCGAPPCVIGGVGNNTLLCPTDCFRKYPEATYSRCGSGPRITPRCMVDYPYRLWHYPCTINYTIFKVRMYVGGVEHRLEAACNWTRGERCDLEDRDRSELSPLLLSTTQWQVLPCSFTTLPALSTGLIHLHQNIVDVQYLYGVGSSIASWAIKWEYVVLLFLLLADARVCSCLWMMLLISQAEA
Sequence of HCV glycoprotein E1E2-mediated membrane fusion (Hepatitis C virus genotype 1a, UniProt P27958) (P27958 192-383): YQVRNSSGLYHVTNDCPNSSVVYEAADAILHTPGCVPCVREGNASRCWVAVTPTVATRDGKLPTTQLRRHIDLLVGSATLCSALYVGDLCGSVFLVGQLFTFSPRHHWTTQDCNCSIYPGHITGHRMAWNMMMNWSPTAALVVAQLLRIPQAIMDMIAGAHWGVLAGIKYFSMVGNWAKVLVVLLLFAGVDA

[4] = system: HCV glycoprotein E1E2-mediated membrane fusion; assay: cell-based; type: cell-based, Hepatitis C virus (strain H77)
[5] = system: CLDN1, OCLND, CD81 and SR-BI in Huh7 cells; assay: Co-receptor expression and localization (immunofluorescence, Western blotting); type: cell-based, human; details: 1 μM 24 h (staining), 0, 0.1, 1 or 5 μM (Western blotting)
Description: Figure 4 E27 affects neither HCV co-receptor localization nor expression levels. (a) DMSO and E27 (1 μM) were added to Huh7 cells and allowed to incubate for 24 h. CLDN1, OCLND, CD81 and SR-BI were stained with corresponding antibodies (green), and nuclei (blue) were stained with DAPI. (b) Huh7 cells were treated with 0, 0.1, 1 or 5 μM of E27, and the expression levels of CLDN1, OCLND, CD81 and SR-BI were analyzed by Western blotting. The expression of β-actin was also analyzed as a loading control.
Immunostaining of Huh7 cells was performed using antibodies against CLDN1, OClD, SR-BI or CD81 as previously descriped. Images were captured on a Leica SPW5 confocal microscope. Nucleus was stained with DAPI.
as §2, with “detection. For immunoprecipitation-coupled Western blotting, cleared cell lysates were immunoprecipitated with anti-FLAG M2 affinity resin (Sigma) and washed with lysis buffer.” for “detection.”

JFH-1 HCVcc = assay: Virus pre-treatment (virocidal) assay; details: 1 μM, 2 h at 37 °C, unbound peptide removed by ultracentrifugation, then infection of Huh7.5.1 cells
Description: After removal of the unbound peptide, the viruses were resuspended and used to infect naïve Huh7.5.1 cells.

[6] = system: HCV full-length genotype 1b replicon-containing cell line (2-3+); type: cell-based, Hepatitis C virus; details: replicon cells, 1 μM, 48 h
[7] = system: HCV entry into Huh7.5.1 cells; assay: Time-of-addition assays; type: cell-based, Hepatitis C virus; details: 1 μM
Description: Next, to further corroborate that E27 targets HCV fusion, we sought to define the steps of HCV cell entry targeted by E27. […] In addition, we added E27 to Huh7.5.1 cells at different time intervals during the early phase of HCV infection. Three different time-points assays were conducted: cells were exposed to HCV for 1 h at 4 °C (attachment/binding period). Virus was removed, and the cells were washed with serum-free medium and incubated at 4 °C for another 1 h (postattachment/binding period). The cells were then washed and incubated for 1 h at 37 °C (endocytosis/fusion period). Finally, the cells were washed and incubated in 10% FBS-containing culture medium for 24 h, E27 was added at one of these steps. […] Moreover, we compared inhibitory kinetics between E27 and bafilomycin A1, a well-recognized inhibitor of fusion during virus infection.
Huh7.5.1 cells were seeded at 8 × 10^4 cells/well in 24-well plates. The next day, virus inoculum was added to the plates, which were then incubated at 4 °C for 1 h. Unbound virus was removed by 3 washes with cold medium. The cells were then shifted to 37 °C and incubated. The specified inhibitors were added at specific time points during infection and were either removed by washing after two hours or added back as described in the Figure legends. Firefly luciferase activity was quantified at 48 h post-infection. The experiments were performed in triplicate.

E1/E2 glycoproteins = assay: Co-immunoprecipitation of E27 with E1 or E2; type: binding, Hepatitis C virus; details: Myc-tagged E27 co-expressed with Flag-tagged E1 or E2, anti-Flag immunoprecipitation
Description: as §1, §2

Compound | antiviral activity compared to the parental peptide [1] | inhibition of entry of VSV-G–pseudotyped lentivirus [2] | effect on E1E2 heterodimers (E1E2 heterodimer) | CC50 (Huh7.5.1 cells) [µM] | suppression of wild-type E1E2-mediated fusion [3] | susceptibility of E1-1 and E1-9 mutated E1E2 to E27 in the fusion assay [4] | effect on subcellular distribution and expression of co-receptors [5] | virocidal effect on HCV (JFH-1 HCVcc) | effect on intracellular HCV core protein level ([6]; Western blotting) | effect on HCV RNA replication ([6]; qRT-PCR) | inhibition when added during the attachment or binding step ([7]; 1 h at 4 °C) | inhibition when added together with the virus or within 2 h of infection ([7]; HCVpp, Huh7.5.1 cells, luciferase at 48 h) | inhibition when added prior to infection ([7]; added 2 or 4 h prior to HCVpp inoculation and removed, luciferase at 48 h) | inhibition of HCV infection when added during the late entry step ([7]; endocytosis/fusion period, 1 h at 37 °C) | interaction with E1 or E2 (E1/E2 glycoproteins)
CSFTTLP ALSTGLIHLHQNIVDVQYLYGV [E27-2, E27 shortened by 6 aa from the N-terminus, residues 7-35] | slightly increased |  |  |  |  |  |  |  |  |  |  |  |  |  | 
CC[C@H](C)[C@H](NC(=O)[C@H](CC(C)C)NC(=O)CNC(=O)[C@@H](NC(=O)[C@H](CO)NC(=O)[C@H](CC(C)C)NC(=O)[C@H](C)NC(=O)[C@@H]1CCCN1C(=O)[C@H](CC(C)C)NC(=O)[C@@H](NC(=O)[C@@H](NC(=O)[C@H](Cc1ccccc1)NC(=O)[C@H](CO)NC(=O)[C@H](CS)NC(=O)[C@@H]1CCCN1C(=O)[C@H](CC(C)C)NC(=O)[C@@H](NC(=O)[C@H](CCC(N)=O)NC(=O)[C@H](Cc1c[nH]c2ccccc12)NC(=O)[C@@H](N)CCC(N)=O)C(C)C)[C@@H](C)O)[C@@H](C)O)[C@@H](C)O)C(=O)N[C@@H](Cc1c[nH]cn1)C(=O)N[C@@H](CC(C)C)C(=O)N[C@@H](Cc1c[nH]cn1)C(=O)N[C@@H](CCC(N)=O)C(=O)N[C@@H](CC(N)=O)C(=O)N[C@H](C(=O)N[C@H](C(=O)N[C@@H](CC(=O)O)C(=O)N[C@H](C(=O)N[C@@H](CCC(N)=O)C(=O)N[C@@H](Cc1ccc(O)cc1)C(=O)N[C@@H](CC(C)C)C(=O)N[C@@H](Cc1ccc(O)cc1)C(=O)NCC(=O)N[C@H](C(=O)O)C(C)C)C(C)C)C(C)C)[C@@H](C)CC [E27] (H-QWQVLPCSFTTLPALSTGLIHLHQNIVDVQYLYGV-OH; N-terminus and C-terminus assumed) |  | did not inhibit | significant decrease | 180.3 | efficiently suppressed | markedly increased resistance | no detectable effect | no virocidal effect | no impact | no impact | no inhibition was observed | best inhibitory activity | no inhibition was observed | strong inhibition | neither E1 nor E2 interact independently with E27
